Data: patent US5679677A, “Heterocyclic carbamates, process for their preparation and medicaments” (Luitpold Pharma GmbH, priority 1993, dated 1997)
Entries after “also recorded” stand apart in the source; their conditions may differ. Counter-ions that a name gives are not always drawn.

System: not listed separately
Test: Hygroscopicity of isolated solid
Type: physicochemical
Conditions: hydrochloride

For `CN1CCCC(OC(=O)n2ccc3ccccc3c2=O)C1` (stereo not drawn) [Example 19, N'-Methylpiperidin-3-yl isoquinolin-1(2 H)-one-N-carboxylate hydrochloride], the “hygroscopicity / behaviour in air (in words)” value was “very hygroscopic; also recorded: deliquesces in air”.

Target: T1, elastase from human granulocytes (Homo sapiens, UniProt P08246)
T1 construct: from tissue; host or cells: human granulocytes
T1 sequence (P08246 30-247 limits assumed): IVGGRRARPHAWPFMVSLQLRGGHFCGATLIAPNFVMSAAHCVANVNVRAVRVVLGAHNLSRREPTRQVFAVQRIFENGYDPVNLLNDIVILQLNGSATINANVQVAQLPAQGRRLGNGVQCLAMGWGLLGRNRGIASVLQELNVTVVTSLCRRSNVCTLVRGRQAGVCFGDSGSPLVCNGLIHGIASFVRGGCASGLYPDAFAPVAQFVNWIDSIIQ
Test: Inhibition of granulocyte elastase (enzyme inhibition test, substrate L-pyroglutaminyl-L-prolyl-L-valine-p-nitroanilide)
Type: biochemical
Conditions: substrate L-pyroglutaminyl-L-prolyl-L-valine-p-nitro-anilide, read-out: IC50 (concentration for 50% inhibition) of granulocytic elastase
Protocol: The inhibition of granulocyte elastase was determined in an enzyme inhibition test using elastase from human granulocytes. In this test the specific substrate L-pyroglutaminyl-[…]-nitro-anilide was used ([…] et al., Scand. J. Lab. Invest. 43 (1983) 427-432). The IC50 values (concentrations for 50% inhibition) are shown in Table 1 for exemplary compounds according to the invention.

Point of comparison: `CCOC(=O)n1ccc2ccccc2c1=O` [Example 2], IC50 0.3 µM. Against it:
- CCOC(=O)Oc1cccc2c(=O)n(C(=O)OCC)ccc12 [Example 15, Ethyl 5-ethoxycarbonyloxyisoquinolin-1(2 H)-one-N-carboxylate] — 18-fold higher, 5.4 µM
- CCOC(=O)n1c(SCc2ccccc2)nc2ccccc2c1=O [Example 14] — 20-fold higher, 6 µM
- O=C(Oc1ccccc1)n1ncc2ccccc2c1=O [Example 1, Phenyl 1(2 H)-phthalazinone-N-carboxylate] — within 1.5-fold, 0.2 µM
- O=C(Oc1ccccc1)n1c(SCc2ccccc2)nc2ccccc2c1=O [Example 13] — 13-fold higher, 4 µM
- COC(=O)c1ccc(OC(=O)n2nnc3ccccc3c2=O)cc1 [Example 4] — 28-fold higher, 8.3 µM
- Cc1nn(C(=O)Oc2ccccc2)c(=O)c2ccccc12 [Example 6] — 2.5-fold higher, 0.75 µM

System: not listed separately
Test: Antithrombotic action in the tail-bleeding time model on the rat (modified test according to Diness)
Type: in vivo
Conditions: groups of 10, oral administration, 200 mg/kg
Protocol: The compound from Example 14 at a dose of 200 mg/kg thus prolonged the bleeding time by 103%.

For `CCOC(=O)n1c(SCc2ccccc2)nc2ccccc2c1=O` [Example 14], the “prolongation of the bleeding time” value was 103%.
